Test results: patent US5560923A (Georgetown University, priority 1994, dated 1996)

Assays:
[1] = Complex formation of drug with cardiolipin-containing liposomes (centrifugation, spectrophotometry of supernatant); assay type: physicochemical; conditions: same conditions as doxorubicin, mixed with cardiolipin-containing liposomes
Protocol: Formation of the complex liposome-doxorubicin was evaluated relative to the time of the incubation at 25° C. following the mixing of both components (FIG. 1).
Association capacity of doxorubicin to cardiolipin-liposomes was evaluated for different concentrations of mixture of both components mixed in the same volume (5 ml) after an incubation of 15 min. at 37° C. at a fixed liposome/doxorubicin weight ratio of 11 (Table 1).

LZ cells = assay: Clonogenic assay, cytotoxicity / multidrug resistance reversal in LZ cells; conditions: mixed with cardiolipin-containing liposomes
Protocol: Percent survival of treated cells was determined relative to untreated control.

## CC[C@]1(O)C[C@H]2CN(CCc3c([nH]c4ccccc34)[C@@](C(=O)OC)(c3cc4c(cc3OC)N(C=O)[C@H]3[C@@](O)(C(=O)OC)[C@H](OC(C)=O)[C@]5(CC)C=CCN6CC[C@]43[C@@H]65)C2)C1 [vincristine]
[1]
  association between drug and liposome (in words): no association between drug and liposome was formed
LZ cells
  increase in drug cytotoxicity (in words): no increase in drug cytotoxicity was observed
